Patent publication US6355655B1, “Heterocyclic sulphonamide derivatives” (Eli Lilly and Company, priority 1998, dated 2002)

Biological target: T1, human GluR4B receptor (Homo sapiens, UniProt P48058)
T1 construct: expressed in transfected cells
Test: Potentiation of agonist-induced excitability of human GluR4B receptor expressed in HEK 293 cells
Type: cell-based
Excerpt: The ability of compounds of formula I to potentiate glutamate receptor-mediated response may be determined using fluorescent calcium indicator dyes (Molecular Probes, Eugene, Oreg., Fluo-3) and by measuring glutamate-evoked efflux of calcium into GluR4 transfected HEK293 cells, as described in more detail below.
In one test, 96 well plates containing confluent monolayers of HEK cells stably expressing human GluR4B (obtained as described in European Patent Application Publication Number EP-A1-583917) are prepared. The tissue culture medium in the wells is then discarded, and the wells are each washed once with 200 μl of buffer (glucose, 10 mM, sodium chloride, 138 mM, magnesium chloride, 1 mM, potassium chloride, 5 mM, calcium chloride, 5 mM, N-[2-hydroxyethyl]-piperazine-N-[2-ethanesulfonic acid], 10 mM, to pH 7.1 to 7.3). […]
Each test is then performed as follows. […] A second fluorescent reading is taken after 5 minutes incubation. 15 μl of 400 μM glutamate solution is then added to each well (final glutamate concentration 100 μM), and a third reading is taken. The activities of test compounds and cyclothiazide solutions are determined by subtracting the second from the third reading (fluorescence due to addition of glutamate in the presence or absence of test compound or cyclothiazide) and are expressed relative to enhance fluorescence produced by 100 μM cyclothiazide.

T1 sequence (P48058 21-902): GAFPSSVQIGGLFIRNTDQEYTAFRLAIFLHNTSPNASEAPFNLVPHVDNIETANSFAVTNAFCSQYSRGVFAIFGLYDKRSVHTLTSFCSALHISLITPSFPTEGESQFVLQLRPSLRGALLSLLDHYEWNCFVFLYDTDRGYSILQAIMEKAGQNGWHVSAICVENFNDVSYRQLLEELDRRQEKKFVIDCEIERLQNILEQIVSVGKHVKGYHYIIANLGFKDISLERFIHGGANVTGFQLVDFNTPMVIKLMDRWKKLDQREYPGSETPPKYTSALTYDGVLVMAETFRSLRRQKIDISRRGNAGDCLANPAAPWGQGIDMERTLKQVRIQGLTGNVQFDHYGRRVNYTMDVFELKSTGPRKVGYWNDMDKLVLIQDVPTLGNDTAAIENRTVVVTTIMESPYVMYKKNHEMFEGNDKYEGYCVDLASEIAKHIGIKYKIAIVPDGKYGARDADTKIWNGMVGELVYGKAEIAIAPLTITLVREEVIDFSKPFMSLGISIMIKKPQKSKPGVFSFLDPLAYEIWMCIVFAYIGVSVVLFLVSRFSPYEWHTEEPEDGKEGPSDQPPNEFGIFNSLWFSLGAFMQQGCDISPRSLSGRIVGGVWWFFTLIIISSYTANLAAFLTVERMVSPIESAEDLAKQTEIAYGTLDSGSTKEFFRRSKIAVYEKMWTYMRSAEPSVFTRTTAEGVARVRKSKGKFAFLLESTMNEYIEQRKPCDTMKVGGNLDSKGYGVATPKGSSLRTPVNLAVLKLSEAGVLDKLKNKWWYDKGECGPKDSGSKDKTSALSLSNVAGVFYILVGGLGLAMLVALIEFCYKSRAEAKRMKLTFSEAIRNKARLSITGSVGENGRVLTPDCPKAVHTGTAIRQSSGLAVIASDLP

In the case of `NS(=O)(=O)c1cc2c(cc1Cl)NC(C1CC3C=CC1C3)NS2(=O)=O` (stereo not shown) [cyclothiazide], the “potentiation of agonist-induced excitability” value is reported as “potentiate agonist-induced excitability”.
